Here are results for three compounds from ChEMBL document CHEMBL1145602, “Synthesis and DNA binding ability of cyclam-amino acid conjugates” (Bioorg Med Chem Lett, 2008).

The ΔTm is the change in melting temperature against a reference sample.

The source made the active and inactive calls. The calls are words filed in the database; no cut-off is given here.

The test concerns DNA. Briefly: Binding affinity to calf thymus DNA at pH 7 by thermal denaturation assay. Type of test: nucleic-acid assay. The following applies: Bos taurus.

`O=C(CN1CCCNCCNCCCNCC1)N[C@@H](COCc1ccccc1)C(=O)O`: the thermal shift (ΔTm) is 8 °C.
Consider `O=C(CN1CCCNCCNCCCNCC1)N[C@@H](Cc1ccccc1)C(=O)O`, for which the outcome was Active.
The same measure, in the same setting: to `C[C@H](NC(=O)CN1CCCNCCNCCCNCC1)C(=O)O` belongs “Active”.
